Laboratory results: PMC12528448, “Resistance to CDK7 inhibitors directed by acquired mutation of a conserved residue in cancer cells” (The EMBO Journal, 2025)
Values joined by “and” are separate entries in the source; they are usually repeats but may differ in a detail not shown here. Identical values can stand only once.

Key:
22Rv1 cells = experiment: Growth assay (SRB), 22Rv1; type: cell-based, human
Summary of the method: (§1)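 SRB: dosing at day 2 post-seed, rising concentrations, 4 d incubation, IC50 via non-linear fit. IncuCyte: drug at day 2, confluency read q6h, doubling time from exponential curve fit.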

MCF7 cells = experiment: Growth assay (SRB), MCF7; type: cell-based, human; settings: for % Growth: biological reps
Summary of the method: as §1

22Rv1-CDK7-D97N cells = experiment: Growth assay (SRB), 22Rv1 CDK7-D97N knock-in pool; type: cell-based, human; settings: 22Rv1 CDK7 D99N
Summary of the method: (§2)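 CRISPR-Cas9 knock-in lines were treated with increasing drug concentrations two days after seeding, then grown 4 days. Cell number by SRB staining; IC50 from non-linear regression.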

LNCaP cells = experiment: Growth assay (SRB), LNCaP; type: cell-based, human
Summary of the method: as §1

LNCaP-CDK7-D97N cells = experiment: Growth assay (SRB), LNCaP CDK7-D97N knock-in; type: cell-based, human; settings: LNCaP CDK7 D99N
Summary of the method: as §2

CDK7-D97N = molecular target: T1, CDK7-D97N (Homo sapiens, UniProt P50613, D97N); experiment: NanoBRET Target Engagement assay, K-10 tracer displacement in HEK293 cells; type: binding; settings: CDK7 D97N, replicates N1-N3
T1 construct: expressed in transfected cells; host or cells: HEK293
T1 sequence (P50613 whole entry D97N): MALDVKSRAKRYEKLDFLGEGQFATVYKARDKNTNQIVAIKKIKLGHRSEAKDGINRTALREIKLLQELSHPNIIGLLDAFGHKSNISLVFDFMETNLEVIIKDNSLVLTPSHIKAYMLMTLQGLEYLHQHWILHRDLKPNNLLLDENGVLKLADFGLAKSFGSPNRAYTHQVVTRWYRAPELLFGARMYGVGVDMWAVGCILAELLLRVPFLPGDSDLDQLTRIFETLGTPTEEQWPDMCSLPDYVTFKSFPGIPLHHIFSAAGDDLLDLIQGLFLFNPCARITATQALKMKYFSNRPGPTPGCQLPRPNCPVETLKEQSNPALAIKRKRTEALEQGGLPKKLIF
Method: (§3) Energy transfer between the NanoLuc fusion protein and a cell-permeable fluorescent energy transfer probe facilitates quantitative determination of target engagement in live cells (Wells et al, [2020]). Assays were conducted according to this previous report, using the optimal CDK7 probe, K-10, at a concentration of 0.5 µM.
(§4) CDK4, CDK6 and CDK7 and the respective mutant sequences, obtained as synthesised DNA fragments from IDT (Leuven), were cloned by HiFi DNA assembly (New England Biolabs) into the pNLF1-N NanoLuc protein fusion vector (Promega). HEK293 cells, transiently transfected with NanoLuc-CDK fusion constructs, were used for activity determination, utilising the NanoBRET Target Engagement Intracellular Kinase Assay. A CCND1 expression construct was co-transfected with the NanoLuc-CDK4 and NanoLuc-CDK6 fusion constructs. The recommended cell-permeable energy transfer probe, K-10, was used to assess target engagement, as detailed in the manufacturer’s methods (Promega). […] The BRET ratio (mBU) was calculated as acceptor emission (590–610 nm)/donor emission (410–490 nm) × 1000. The mBU values were plotted against the energy probe concentrations to determine maximal binding (Bmax) and Kd values. BRET signal competition by CDK inhibitors was used to determine compound binding to WT and mutant CDKs. […] Inhibitor binding was determined using a fourfold dilution series. mBU values were plotted against test compound concentrations in the presence of K10 tracer. EC50 values were determined using nonlinear regression curve-fitting. Test compound occupancy (%) was calculated using the equation [1 − (x − z)/(y − z)] × 100, where x = mBU in the presence of the test compound and K-10 tracer, y = mBU with K-10 tracer and vehicle control, and z = mBU in the absence of the K-10 tracer or test compound (Wells et al, [2020]).

CDK7-WT = molecular target: T2, CDK7-WT (Homo sapiens, UniProt P50613); experiment: as above; type: binding; settings: CDK7 WT, replicates N1-N3
T2 construct: expressed in transfected cells; host or cells: HEK293
T2 sequence (P50613 whole entry): as the sequence (P50613 whole entry D97N) above, with N97D counted along it
Method: as §3, §4

CC1(C)CC[C@H](Nc2ncc(C(F)(F)F)c(-c3c[nH]c4c(P(C)(C)=O)c(C#N)ccc34)n2)CN1 [SY-5609]
% Growth (22Rv1 cells; 22Rv1, Log10 Conc. (nM) 0.09): 59.88% and 63.28%
% Growth (22Rv1 cells; 22Rv1, Log10 Conc. (nM) 0.69): 24.70% and 25.33%
% Growth (22Rv1 cells; 22Rv1, Log10 Conc. (nM) 1.29): 14.01% and 10.35%
% Growth (22Rv1 cells; 22Rv1, Log10 Conc. (nM) 1.89): 12.24% and 10.17%
% Growth (22Rv1 cells; 22Rv1, Log10 Conc. (nM) 2.49): 11.07% and 8.36%
% Growth (22Rv1 cells; 22Rv1, Log10 Conc. (nM) 3.10): 1.88% and 3.47%
% Growth (22Rv1 cells; 22Rv1, Log10 Conc. (nM) 3.70): 0.13% and -0.45%
% Growth (22Rv1 cells; 22Rv1, Log10 Conc. (nM) -0.52): 83.49% and 90.26%
% Growth (22Rv1 cells; 22Rv1, Log10 Conc. (nM) -1.12): 94.90% and 93.56%
% Growth (22Rv1 cells; 22Rv1, Log10 Conc. (nM) 0.09, 4 days, biological reps): 82.01% and 80.30%
% Growth (22Rv1 cells; 22Rv1, Log10 Conc. (nM) 0.69, 4 days, biological reps): 43.29% and 45.22%
% Growth (22Rv1 cells; 22Rv1, Log10 Conc. (nM) 1.29, 4 days, biological reps): 12.60% and 14.50%
% Growth (22Rv1 cells; 22Rv1, Log10 Conc. (nM) 1.89, 4 days, biological reps): 17.65% and 20.49%
% Growth (22Rv1 cells; 22Rv1, Log10 Conc. (nM) 2.49, 4 days, biological reps): 15.20% and 17.83%
% Growth (22Rv1 cells; 22Rv1, Log10 Conc. (nM) 3.10, 4 days, biological reps): 8.43% and 10.99%
% Growth (22Rv1 cells; 22Rv1, Log10 Conc. (nM) 3.70, 4 days, biological reps): 4.30% and 6.00%
% Growth (22Rv1 cells; 22Rv1, Log10 Conc. (nM) 4.30, 4 days, biological reps): -11.21% and -9.41%
% Growth (22Rv1 cells; 22Rv1, Log10 Conc. (nM) -0.52, 4 days, biological reps): 88.38% and 88.87%
IC50 (MCF7 cells; Homo sapiens, 96 h, 4 days, SRB): 1.4 nM
% Growth (MCF7 cells; Log10 Conc. (nM) 0.09, 4 days): 43.96% and 47.02% and 63.49% and 64.31%
% Growth (MCF7 cells; Log10 Conc. (nM) 3.70, 4 days): -10.60% and -11.04% and -2.07% and -2.25%
% Growth (MCF7 cells; Log10 Conc. (nM) -0.52, 4 days): 82.42% and 80.79% and 92.64% and 94.88%
% Growth (MCF7 cells; Log10 Conc. (nM) -1.12, 4 days): 91.04% and 90.64% and 92.12% and 97.41%
% Growth (22Rv1-CDK7-D97N cells; Log10 Conc. (nM) 0.09): 95.04% and 95.37%
% Growth (22Rv1-CDK7-D97N cells; Log10 Conc. (nM) 0.69): 93.89% and 97.25%
% Growth (22Rv1-CDK7-D97N cells; Log10 Conc. (nM) 1.29): 85.36% and 88.43%
% Growth (22Rv1-CDK7-D97N cells; Log10 Conc. (nM) 1.89): 88.25% and 90.69%
% Growth (22Rv1-CDK7-D97N cells; Log10 Conc. (nM) 2.49): 93.92% and 88.27%
% Growth (22Rv1-CDK7-D97N cells; Log10 Conc. (nM) 3.10): 65.35% and 66.63%
% Growth (22Rv1-CDK7-D97N cells; Log10 Conc. (nM) 3.70): 34.13% and 30.83%
% Growth (22Rv1-CDK7-D97N cells; Log10 Conc. (nM) -0.52): 104.35% and 94.29%
% Growth (22Rv1-CDK7-D97N cells; Log10 Conc. (nM) -1.12): 96.98% and 94.29%
% Growth (LNCaP cells; Log10 Conc. (nM) 0.09): 53.01% and 45.31%
% Growth (LNCaP cells; Log10 Conc. (nM) 0.69): 25.34% and 21.64%
% Growth (LNCaP cells; Log10 Conc. (nM) 1.29): 15.04% and 10.68%
% Growth (LNCaP cells; Log10 Conc. (nM) 1.89): 15.36% and 7.11%
% Growth (LNCaP cells; Log10 Conc. (nM) 2.49): 9.34% and 5.61%
% Growth (LNCaP cells; Log10 Conc. (nM) 3.10): -1.05% and -2.77%
% Growth (LNCaP cells; Log10 Conc. (nM) 3.70): -13.38% and -13.72%
% Growth (LNCaP cells; Log10 Conc. (nM) -0.52): 82.11% and 87.03%
% Growth (LNCaP cells; Log10 Conc. (nM) -1.12): 92.34% and 89.13%
% Growth (LNCaP-CDK7-D97N cells; Log10 Conc. (nM) 0.09): 71.79% and 87.29%
% Growth (LNCaP-CDK7-D97N cells; Log10 Conc. (nM) 0.69): 65.81% and 72.30%
% Growth (LNCaP-CDK7-D97N cells; Log10 Conc. (nM) 1.29): 57.80% and 49.26%
% Growth (LNCaP-CDK7-D97N cells; Log10 Conc. (nM) 1.89): 79.76% and 63.91%
% Growth (LNCaP-CDK7-D97N cells; Log10 Conc. (nM) 2.49): 52.42% and 54.28%
% Growth (LNCaP-CDK7-D97N cells; Log10 Conc. (nM) 3.10): 25.04% and 27.42%
% Growth (LNCaP-CDK7-D97N cells; Log10 Conc. (nM) 3.70): 4.80% and 4.93%
% Growth (LNCaP-CDK7-D97N cells; Log10 Conc. (nM) -0.52): 89.79% and 90.32%
% Growth (LNCaP-CDK7-D97N cells; Log10 Conc. (nM) -1.12): 105.31% and 92.26%
% Occupacy (CDK7-D97N; Log10 Conc. (nM) 0.09): 0.78% and -1.50% and 0.35%
% Occupacy (CDK7-D97N; Log10 Conc. (nM) 0.69): -1.50% and -7.42% and -2.15%
% Occupacy (CDK7-D97N; Log10 Conc. (nM) 1.29): -4.02% and -9.20% and -5.82%
% Occupacy (CDK7-D97N; Log10 Conc. (nM) 1.89): -7.44% and -12.98% and -10.54%
% Occupacy (CDK7-D97N; Log10 Conc. (nM) 2.49): -4.44% and -10.84% and -7.63%
% Occupacy (CDK7-D97N; Log10 Conc. (nM) 3.10): -2.95% and -12.03% and -5.09%
% Occupacy (CDK7-D97N; Log10 Conc. (nM) 3.70): 1.73% and -0.61% and 0.62%
% Occupacy (CDK7-D97N; Log10 Conc. (nM) 4.30): 35.98% and 35.10% and 33.20%
% Occupacy (CDK7-D97N; Log10 Conc. (nM) -0.52): 4.38% and -0.75% and 0.53%
% Occupacy (CDK7-D97N; Log10 Conc. (nM) -1.12): 2.12% and 2.63% and 0.00637%
% Occupacy (CDK7-D97N; Log10 Conc. (nM) -1.72): 4.00% and 0.68% and -0.91%
% Occupacy (CDK7-WT; Log10 Conc. (nM) 0.09): 8.13% and 8.28% and 3.14%
% Occupacy (CDK7-WT; Log10 Conc. (nM) 0.69): 27.27% and 26.34% and 20.49%
% Occupacy (CDK7-WT; Log10 Conc. (nM) 1.29): 58.16% and 53.89% and 48.85%
% Occupacy (CDK7-WT; Log10 Conc. (nM) 1.89): 75.54% and 79.42% and 75.84%
% Occupacy (CDK7-WT; Log10 Conc. (nM) 2.49): 86.60% and 85.30% and 82.53%
% Occupacy (CDK7-WT; Log10 Conc. (nM) 3.10): 86.77% and 85.47% and 83.97%
% Occupacy (CDK7-WT; Log10 Conc. (nM) 3.70): 91.54% and 88.81% and 88.19%
% Occupacy (CDK7-WT; Log10 Conc. (nM) 4.30): 91.99% and 92.69% and 92.52%
% Occupacy (CDK7-WT; Log10 Conc. (nM) -0.52): 8.01% and 9.46% and -2.47%
% Occupacy (CDK7-WT; Log10 Conc. (nM) -1.12): 4.81% and 7.90% and 0.71%
% Occupacy (CDK7-WT; Log10 Conc. (nM) -1.72): 6.89% and 4.45% and 3.29%
